Experimental data as given in patent publication US20240228512A1, “ACYCLIC OXAZEPINE COMPOUNDS COMPRISING A 6-AZA MOIETY AND USES THEREOF” (Genentech, Inc., priority 2022, published 2024).
Read-outs that look alike come from different tables or passages of the source.

Key:
[1] = target: recombinant human KRAS wild type (SOS1-mediated nucleotide exchange) (Homo sapiens (Human), UniProt P01116); test: KRAS biochemical assay, BODIPY-GDP exchange TR-FRET (WT-GDP HTRF)
[2] = test system: SW480 cells; test: SW480 CTG proliferation assay; assay type: cell-based; conditions: Homo sapiens
[3] = test system: H1975 cells; test: H1975 CTG proliferation assay; assay type: cell-based
[4] = test system: HPAC cells; test: HPAC 3D proliferation assay (CellTiter-Glo); assay type: cell-based; conditions: 3D culture, 7 days, read-out: HPAC CTG IC50
Outline: (§1)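 Cells were seeded in ultra-low attachment plates (3000 or 1000 cells/well for 96- or 384-well format) in RPMI-1640, 10% FBS, 2 mM L-glutamine and cultured overnight at 37 °C/5% CO2 to form spheroids. Compounds were added by 333-fold dilution from DMSO for 7 days. Viability was read as CellTiter-Glo 3D ATP luminescence, with IC50 from a 4-parameter logistic fit.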

[5] = test system: SW620 PERK; test: SW620 PERK assay; assay type: cell-based
[6] = test system: SW620 cells; test: SW620 3D proliferation assay (CellTiter-Glo); assay type: cell-based; conditions: SW620, 3D culture, 7 days, read-out: SW620 CTG IC50
Outline: as §1

[7] = target: recombinant human mutant KRas G12V (SOS1-mediated nucleotide exchange) (Homo sapiens (Human), UniProt P01116, G12V); test: KRAS biochemical assay, BODIPY-GDP exchange TR-FRET (G12V-GDP HTRF)
[8] = Homo sapiens, NCI-H1975, H1975, CTG
[9] = Homo sapiens, SW-620, SW620, PERK

Sequence of recombinant human mutant KRas G12V (SOS1-mediated nucleotide exchange) (P01116-2 other isoform, or with tags, fused parts or gaps G12V): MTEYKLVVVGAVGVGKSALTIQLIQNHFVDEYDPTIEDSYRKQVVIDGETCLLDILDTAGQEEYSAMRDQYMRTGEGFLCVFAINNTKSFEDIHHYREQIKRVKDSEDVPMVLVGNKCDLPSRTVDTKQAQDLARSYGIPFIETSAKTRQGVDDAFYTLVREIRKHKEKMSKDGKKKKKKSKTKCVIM
Sequence of recombinant human KRAS wild type (SOS1-mediated nucleotide exchange) (P01116-2 other isoform, or with tags, fused parts or gaps): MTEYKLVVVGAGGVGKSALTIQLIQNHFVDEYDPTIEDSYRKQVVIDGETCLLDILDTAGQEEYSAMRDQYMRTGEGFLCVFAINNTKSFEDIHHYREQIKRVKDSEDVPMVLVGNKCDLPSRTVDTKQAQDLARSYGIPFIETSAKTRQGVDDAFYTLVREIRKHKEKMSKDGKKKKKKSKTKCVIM

With `Cc1c(F)c(N)c(F)c(-c2nc3c4c(nc(OC[C@@]56CCCN5C[C@H](F)C6)nc4c2Cl)N([C@H](C)c2cccnc2N)CCO3)c1C(F)(F)F` (atropisomer, axis not shown; (aS)) [Example 629a, 3-((R)-1-((R)-5-(3-amino-2,4-difluoro-5-methyl-6-(trifluoromethyl)phenyl)-4-chloro-2-(((2R,7aS)-2-fluorotetrahydro-1H-pyrrolizin-7a(5H)-yl)methoxy)-8,9-dihydro-10H-7-oxa-1,3,6,10-tetraazacyclohepta[de]naphthalen-10-yl)ethyl)pyridin-2-amine] the IC50 [1] was 0.178 nM, the IC50 [2] was 20 nM and the IC50 [3, 8] was 176 nM. It also gave an IC50 ([4]; Homo sapiens, 168 h) of 15.3 nM, an IC50 [5, 9] of 1.33 nM and an IC50 ([6]; Homo sapiens, SW-620, 168 h) of 1.71 nM. It also gave an IC50 [7] of 0.069 nM.
With `Cc1cc(N)c(Cl)c(-c2nc3c4c(nc(OC[C@@]56CCCN5C[C@H](F)C6)nc4c2F)N([C@H](C)c2cccnc2N)CCO3)c1C(F)(F)F` (single isomer, unassigned) [Example 21b] the IC50 [1] was 0.07 nM, the IC50 [2] was 2.4 nM and the IC50 ([3]; H1975, CTG) was 2.59 nM. The IC50 [4] was 4.43 nM, the IC50 ([5]; SW620, PERK) was 0.555 nM and the IC50 [6] was 1 nM. The IC50 [7] was 0.05 nM.
`C#Cc1c(F)ccc2cc(O)cc(-c3nc4c5c(nc(OC[C@@]67CCCN6C[C@H](F)C7)nc5c3F)N([C@H](C)c3cccnc3N)CCO4)c12` [Example 2, 4-(10-((R)-1-(2-aminopyridin-3-yl)ethyl)-4-fluoro-2-(((2R,7aS)-2-fluorotetrahydro-1H-pyrrolizin-7a(5H)-yl)methoxy)-9,10-dihydro-8H-7-oxa-1,3,6,10-tetraazacyclohepta[de]naphthalen-5-yl)-5-ethynyl-6-fluoronaphthalen-2-ol] gave an IC50 [1] of 0.0671 nM, an IC50 [2] of 2.9 nM and an IC50 [3, 8] of 2.59 nM. For the same molecule, the IC50 ([4]; Homo sapiens, 168 h) was 20.8 nM, the IC50 [5, 9] was 1.29 nM and the IC50 ([6]; Homo sapiens, SW-620, 168 h) was 2.41 nM. The IC50 [7] was 0.08 nM.
`Cc1c(F)c(N)cc(-c2nc3c4c(nc(OC[C@@]56CCCN5C[C@H](F)C6)nc4c2F)N([C@H](C)c2cccnc2N)CCO3)c1C(F)(F)F` [Example 5, 3-((R)-1-(5-(5-amino-4-fluoro-3-methyl-2-(trifluoromethyl)phenyl)-4-fluoro-2-(((2R,7aS)-2-fluorotetrahydro-1H-pyrrolizin-7a(5H)-yl)methoxy)-8,9-dihydro-10H-7-oxa-1,3,6,10-tetraazacyclohepta[de]naphthalen-10-yl)ethyl)pyridin-2-amine] showed an IC50 [1] of 0.0529 nM, an IC50 [2] of 5.8 nM and an IC50 [3, 8] of 12.8 nM. It also gave an IC50 ([4]; Homo sapiens, 168 h) of 5.06 nM, an IC50 [5, 9] of 0.72 nM and an IC50 ([6]; Homo sapiens, SW-620, 168 h) of 1.14 nM. The IC50 [7] was 0.045 nM.
`Cc1cc(N)nc(-c2nc3c4c(nc(OC[C@@]56CCCN5C[C@H](F)C6)nc4c2F)N([C@H](C)c2cccnc2N)CCO3)c1C(F)(F)F` [Example 6, 6-(10-((R)-1-(2-aminopyridin-3-yl)ethyl)-4-fluoro-2-(((2R,7aS)-2-fluorotetrahydro-1H-pyrrolizin-7a(5H)-yl)methoxy)-9,10-dihydro-8H-7-oxa-1,3,6,10-tetraazacyclohepta[de]naphthalen-5-yl)-4-methyl-5-(trifluoromethyl)pyridin-2-amine] showed an IC50 [1] of 0.215 nM, an IC50 [2] of 120 nM and an IC50 [3, 8] of 7.23 nM. For the same molecule, the IC50 ([4]; Homo sapiens, 168 h) was 43.7 nM, the IC50 [5, 9] was 7.68 nM and the IC50 ([6]; Homo sapiens, SW-620, 168 h) was 13.4 nM. It also gave an IC50 [7] of 0.21 nM.
Molecule `C#Cc1cccc2cc(O)cc(-c3nc4c5c(nc(OC[C@@]67CCCN6C[C@H](F)C7)nc5c3F)N([C@H](C)c3cccnc3N)CCO4)c12` [Example 7, 4-(10-((R)-1-(2-aminopyridin-3-yl)ethyl)-4-fluoro-2-(((2R,7aS)-2-fluorotetrahydro-1H-pyrrolizin-7a(5H)-yl)methoxy)-9,10-dihydro-8H-7-oxa-1,3,6,10-tetraazacyclohepta[de]naphthalen-5-yl)-5-ethynyinaphthalen-2-ol] has an IC50 [1] of 0.12 nM, an IC50 [2] of 12 nM and an IC50 [3, 8] of 2.59 nM. It also gave an IC50 ([4]; Homo sapiens, 168 h) of 19.3 nM, an IC50 [5, 9] of 1.13 nM and an IC50 ([6]; Homo sapiens, SW-620, 168 h) of 1.96 nM. For the same molecule, the IC50 [7] was 0.04 nM.
Work on `Cc1nc(N)cc(-c2nc3c4c(nc(OC[C@@]56CCCN5C[C@H](F)C6)nc4c2F)N([C@H](C)c2cccnc2N)CCO3)c1C(F)(F)F` [Example 14, 4-(10-((R)-1-(2-aminopyridin-3-yl)ethyl)-4-fluoro-2-(((2R,7aS)-2-fluorotetrahydro-1H-pyrrolizin-7a(5H)-yl)methoxy)-9,10-dihydro-8H-7-oxa-1,3,6,10-tetraazacyclohepta[de]naphthalen-5-yl)-6-methyl-5-(trifluoromethyl)pyridin-2-amine] yielded an IC50 [1] of 0.434 nM, an IC50 [2] of 130 nM and an IC50 [3, 8] of 116 nM. For the same molecule, the IC50 ([4]; Homo sapiens, 168 h) was 76 nM, the IC50 [5, 9] was 2.65 nM and the IC50 ([6]; Homo sapiens, SW-620, 168 h) was 13.9 nM. For the same molecule, the IC50 [7] was 0.17 nM.
In the case of `Cc1cc(N)c(F)c(-c2nc3c4c(nc(OC[C@@H]5CC[C@H]6COCCN65)nc4c2F)N([C@H](C)c2cccnc2N)CCO3)c1C(F)(F)F` [Example 22, 3-((1R)-1-(5-(3-amino-2-fluoro-5-methyl-6-(trifluoromethyl)phenyl)-4-fluoro-2-(((6S,8aS)-hexahydro-1H-pyrrolo[2,1-c][1,4]oxazin-6-yl)methoxy)-8,9-dihydro-10H-7-oxa-1,3,6,10-tetraazacyclohepta[de]naphthalen-10-yl)ethyl)pyridin-2-amine], the IC50 [2] is reported as 24 nM, the IC50 [3, 8] is reported as 48.7 nM and the IC50 ([4]; Homo sapiens, 168 h) is reported as 67 nM. It also gave an IC50 [5, 9] of 6.32 nM and an IC50 ([6]; Homo sapiens, SW-620, 168 h) of 6.45 nM.
With `C[C@H](c1cccnc1N)N1CCOc2nc(-c3cccc4sc(N)nc34)c(F)c3nc(OC[C@@]45CCCN4C[C@H](F)C5)nc1c23` [Example 24, 4-(10-((R)-1-(2-aminopyridin-3-yl)ethyl)-4-fluoro-2-(((2R,7aS)-2-fluorotetrahydro-1H-pyrrolizin-7a(5H)-yl)methoxy)-9,10-dihydro-8H-7-oxa-1,3,6,10-tetraazacyclohepta[de]naphthalen-5-yl)benzo[d]thiazol-2-amine] the IC50 [2] was 700 nM, the IC50 [3, 8] was 5170 nM and the IC50 ([4]; Homo sapiens, 168 h) was 2000 nM. The IC50 [5, 9] was 466 nM and the IC50 ([6]; Homo sapiens, SW-620, 168 h) was 1020 nM.
Work on `C[C@H](c1cccnc1N)N1CCOc2nc(-c3cc(O)cc4cccc(F)c34)c(F)c3nc(OC[C@@]45CCCN4C[C@H](F)C5)nc1c23` [Example 25, 4-(10-((R)-1-(2-aminopyridin-3-yl)ethyl)-4-fluoro-2-(((2R,7aS)-2-fluorotetrahydro-1H-pyrrolizin-7a(5H)-yl)methoxy)-9,10-dihydro-8H-7-oxa-1,3,6,10-tetraazacyclohepta[de]naphthalen-5-yl)-5-fluoronaphthalen-2-ol] yielded an IC50 [2] of 110 nM, an IC50 [3, 8] of 83.1 nM and an IC50 ([4]; Homo sapiens, 168 h) of 250 nM. It also gave an IC50 [5, 9] of 27.6 nM and an IC50 ([6]; Homo sapiens, SW-620, 168 h) of 8.81 nM.
`C[C@H](c1cccnc1N)N1CCOc2nc(-c3cc(O)cc4ccccc34)c(F)c3nc(OC[C@@]45CCCN4C[C@H](F)C5)nc1c23` [Example 26, 4-(10-((R)-1-(2-aminopyridin-3-yl)ethyl)-4-fluoro-2-(((2R,7aS)-2-fluorotetrahydro-1H-pyrrolizin-7a(5H)-yl)methoxy)-9,10-dihydro-8H-7-oxa-1,3,6,10-tetraazacyclohepta[de]naphthalen-5-yl)naphthalen-2-ol] was tested, and the IC50 [1] was 0.26 nM, the IC50 [2] was 350 nM and the IC50 [3, 8] was 77 nM. For the same molecule, the IC50 ([4]; Homo sapiens, 168 h) was 416 nM, the IC50 [5, 9] was 19.3 nM and the IC50 ([6]; Homo sapiens, SW-620, 168 h) was 32.3 nM. For the same molecule, the IC50 [7] was 0.11 nM.
In the case of `Cc1c(F)c(N)nc(-c2nc3c4c(nc(OC[C@@]56CCCN5C[C@H](F)C6)nc4c2F)N([C@H](C)c2cccnc2N)CCO3)c1C(F)(F)F` [Example 604, 6-(10-((R)-1-(2-aminopyridin-3-yl)ethyl)-4-fluoro-2-(((2R,7aS)-2-fluorotetrahydro-1H-pyrrolizin-7a(5H)-yl)methoxy)-9,10-dihydro-8H-7-oxa-1,3,6,10-tetraazacyclohepta[de]naphthalen-5-yl)-3-fluoro-4-methyl-5-(trifluoromethyl)pyridin-2-amine], the IC50 [1] is reported as 0.225 nM, the IC50 [2] is reported as greater than 200 nM and the IC50 [3, 8] is reported as 283 nM. It also gave an IC50 ([4]; Homo sapiens, 168 h) of 26.5 nM, an IC50 [5, 9] of 2.93 nM and an IC50 ([6]; Homo sapiens, SW-620, 168 h) of 5.33 nM. The IC50 [7] was 0.099 nM.
`Cc1cc(N)c(F)c(-c2nc3c4c(nc(OC[C@@]56CCCN5C[C@]5(CC5(F)F)C6)nc4c2F)N([C@H](C)c2nccnc2N)CCO3)c1C(F)(F)F` [Example 609] was tested, and the IC50 [1] was 0.415 nM, the IC50 [2] was 58 nM and the IC50 [3, 8] was 14500 nM. The IC50 ([4]; Homo sapiens, 168 h) was 34 nM, the IC50 [5, 9] was 5.62 nM and the IC50 ([6]; Homo sapiens, SW-620, 168 h) was 5.72 nM. It also gave an IC50 [7] of 0.21 nM.
With `Cc1nc(N)cc(-c2nc3c4c(nc(OC[C@@]56CCCN5C[C@]5(CC5(F)F)C6)nc4c2F)N([C@H](C)c2cccnc2N)CCO3)c1C(F)(F)F` [Example 615] the IC50 [1] was 0.175 nM, the IC50 [2] was 18 nM and the IC50 [3, 8] was 951 nM. The IC50 ([4]; Homo sapiens, 168 h) was 12.3 nM, the IC50 [5, 9] was 2.02 nM and the IC50 ([6]; Homo sapiens, SW-620, 168 h) was 1.92 nM. The IC50 [7] was 0.14 nM.
In the case of `C[C@H](c1cccnc1N)N1CCOc2nc(-c3cc(N)c(F)c(F)c3C(F)(F)F)c(F)c3nc(OC[C@@]45CCCN4C[C@H](F)C5)nc1c23` [Example 623, 3-((R)-1-(5-(5-amino-3,4-difluoro-2-(trifluoromethyl)phenyl)-4-fluoro-2-(((2R,7aS)-2-fluorotetrahydro-1H-pyrrolizin-7a(5H)-yl)methoxy)-8,9-dihydro-10H-7-oxa-1,3,6,10-tetraazacyclohepta[de]naphthalen-10-yl)ethyl)pyridin-2-amine], the IC50 [2] is reported as 50 nM, the IC50 [3, 8] is reported as 4300 nM and the IC50 ([4]; Homo sapiens, 168 h) is reported as 14.1 nM. For the same molecule, the IC50 [5, 9] was 2.29 nM and the IC50 ([6]; Homo sapiens, SW-620, 168 h) was 3.3 nM.
